# Where two headings read alike, the source gives them in different places. Where a SMILES comes first, the peptide text is derived from it. Where no end group is shown, it is not given here. [ ]: non-standard residue; d: D form. 2Nal = N[C@@H](Cc1ccc2ccccc2c1)C(=O)O
# Experiments:
# [1] = biological target: ERBIN PDZ domain (Homo sapiens, UniProt Q96RT1); test: Competition ELISA, ERBIN PDZ-GST binding to immobilized biotinylated peptide; parameters: made in house; host or cells: E. coli; conditions: for fold less potent than Ac-WETWV (SEQ ID NO:225): Alanine scanning of WETWV peptide
# Procedure: Binding affinities of the peptides for the ERBIN PDZ domain were determined as IC50 values using competition ELISAs. […] Assay plates were prepared by coating Maxisorp plates overnight at 4° C. with 65 μl of a 2 μg/ml solution of neutravidin in PBS. The plates were then blocked through addition of 65 μl of a 1% solution of bovine serum albumin (BSA) in PBS for 1 hour at room temperature, then washed 10 times with PBS containing 0.05% Tween-20. 65 μl of the amino-terminally biotinylated peptide PDZ 501 (TGWETWV; SEQ ID NO:222) was then added at a concentration of 100 nM in PBS with 0.5% BSA and 0.05% Tween-20 and incubated for 1 hour at room temperature. Simultaneously, binding reactions consisting of serial dilutions of the test compounds in PBS with 0.5% BSA and 0.05% Tween-20 containing 2 μg/ml ERBIN PDZ-GST fusion protein were incubated for 1 hour at room temperature. The plate coated with the immobilized peptide was again washed 10 times before 65 μl of each binding reaction was added to a well and incubated for 15 minutes at room temperature. The plates were again washed 10 times before being developed by incubating for 30 minutes with a 1:1000 dilution of anti-mouse HRP conjugated antibody and a 1:2000 dilution of a mouse anti-GST antibody in PBS with 0.5% BSA and 0.05% Tween-20. The plates were washed 10 times, then incubated with 100 μl HRP substrate for 5 minutes and the color developed through addition of 100 μl of 1 M H3PO4. The plates were read at 450 nm and the absorption fit to a binding curve using a least squares fit.
# Binding affinities of the peptides for the ERBIN PDZ domain were determined as IC50 values using competition ELISAs. […] Assay plates were prepared by coating microwell plates overnight with neutravidin. The plates were then blocked through addition of BSA, and then amino-terminally biotinylated WETWV (SEQ ID NO:225) was then bound to the plates. Simultaneously, binding reactions consisting of serial dilutions of the test peptides with ERBIN PDZ-GST fusion proteins were performed. The plate coated with the immobilized WETWV (SEQ ID NO:225) was extensively washed before adding each binding reaction to the wells and briefly incubated. After further washing, anti-mouse HRP conjugated antibody and a mouse anti-GST antibody were added. The plates were then developed with HRP substrate and H3PO4, and then read at 450 nm. The absorption fit to a binding curve using a least squares fit. Thus the ability of the various peptides to inhibit ERBIN PDZ domain from binding its cognate was measured. […]
# [2] = biological target: ERBIN PDZ-GST fusion protein (aa. 1217-1371 of SEQ ID NO:201) (human) [GST: P08515]; test: competition ELISA: ERBIN PDZ-GST binding to immobilized biotin-WETWV
# [3] = biological target: GST-MAGI-3 PDZ 2 (aa. 584-707 of SEQ ID NO:200) (human) [GST: P08515]; test: competition ELISA: peptide blocks GST-PDZ binding to immobilized peptide
# [4] = biological target: T1, hZO1 PDZ1 (Homo sapiens, UniProt Q07157); test: IC50 (nM) | hZO1 PDZ1 | 5 nM | B01-88 | Bio-GGWRWTTWL (SEQ ID NO 684) | 36 nM
# T1 construct: Human ZO1 (NM_003257) PDZ1; GST; made in house
# Procedure: (§1) Table printed on a drawing sheet, Fig. 12
# Head of the field: IC50 (nM) | hZO1 PDZ1 | 5 nM | B01-88 | Bio-GGWRWTTWL (SEQ ID NO 684) | 36 nM
# (§2) The patent's description of the figure: FIG. 12. IC50 values indicating binding affinities of various peptides to PDZ domains
# (§3) First copying reader's note: The first column (three lines per block: protein, accession, PDZ domain) is treated as one cell spanning its block; an empty ruled row above the IC50/SD head is left out; #### cells are spreadsheet overflow marks as printed; several heads and cells are cut off at the left by the print (ample, eptide No, EQ ID NO).
# Where the first naming reader finds the target: head: IC50 (nM) | hZO1 PDZ1 | 5 nM | B01-88
# [5] = biological target: T2, Erbin PDZ (Homo sapiens, UniProt Q96RT1); test: IC50 (nM) | Erbin PDZ | 2 nM | PDZ501 | Bio-Ac-GGWETWV (SEQ ID NO 687) | 37 nM
# T2 construct: made in house; host or cells: E. coli
# Procedure: as §1, §2, §3
# Where the first naming reader finds the target: head: IC50 (nM) | Erbin PDZ | 2 nM | PDZ501
# [6] = biological target: ERBIN PDZ-GST fusion protein (aa. 1217-1371 of SEQ ID NO:201) (human, UniProt P08515 1-218 = GST); test: competition ELISA: ERBIN PDZ-GST binding to immobilized biotin-WETWV
# [7] = Substitutions for tryptophan at the −1 position
# [8] = ERBIN peptide truncations with N-terminal acylation
# [9] = ERBIN peptide truncations with N-terminal acylation, read-out: IC50
# [10] = ERBIN peptide truncations without N-terminal acylation
# [11] = ERBIN peptide truncations without N-terminal acylation, read-out: IC50
# [12] = Small molecules that inhibit ERBIN PDZ domain from binding immobilized WETWV, read-out: IC50
# [13] = Substitutions for threonine at the −2 position and glutamate at the −3 position
# T1 sequence (Q07157 23-110): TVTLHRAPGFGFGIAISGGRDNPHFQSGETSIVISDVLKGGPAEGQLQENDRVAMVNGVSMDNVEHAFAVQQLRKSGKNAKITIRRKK
# Sequence of ERBIN PDZ-GST fusion protein (aa. 1217-1371 of SEQ ID NO:201) (P08515 whole entry, the tested form may be a part): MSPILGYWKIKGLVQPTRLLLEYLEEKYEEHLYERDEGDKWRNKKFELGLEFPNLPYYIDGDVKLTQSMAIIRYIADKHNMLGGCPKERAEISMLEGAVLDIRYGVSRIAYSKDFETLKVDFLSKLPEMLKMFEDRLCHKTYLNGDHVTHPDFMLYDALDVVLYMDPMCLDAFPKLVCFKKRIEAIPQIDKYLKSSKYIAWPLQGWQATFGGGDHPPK
# Sequence of ERBIN PDZ-GST fusion protein (aa. 1217-1371 of SEQ ID NO:201) (human) [GST: P08515] (P08515 whole entry, the tested form may be a part): as above
# Sequence of GST-MAGI-3 PDZ 2 (aa. 584-707 of SEQ ID NO:200) (human) [GST: P08515] (P08515 whole entry): as the sequence (P08515 whole entry, the tested form may be a part) above
# Sequence of ERBIN PDZ domain (Q96RT1 1258-1412): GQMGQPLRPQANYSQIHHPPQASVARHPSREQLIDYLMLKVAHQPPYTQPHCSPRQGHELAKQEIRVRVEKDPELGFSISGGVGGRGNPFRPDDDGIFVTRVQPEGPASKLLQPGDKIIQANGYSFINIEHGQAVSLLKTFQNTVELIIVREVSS
# T2 sequence (Q96RT1 1258-1412): as above
molecule,measurement,setting,value
Ac-WETFV [Ac-WETFV],IC50,[1],14.5 µM
same,fold less potent than Ac-WETWV,[1]; [7],295 fold
Ac-WEAWV [Ac-WEAWV],IC50,[1],12.4 µM
same,fold less potent than Ac-WETWV (SEQ ID NO:225),[1],25.3 fold
Ac-TWY (peptide),IC50,[2],77.4 µM
same,fold less potent than Ac-GWETWV,[2],81.5 fold
HTQITKV (peptide),IC50,[3],200 µM
"Ac-WELLI [38 | 01-21, SEQ ID NO 677 NAC-WELLI]",IC50,[4],20100 nM
CC(=O)N[C@@H](Cc1c[nH]c2ccccc12)C(=O)N[C@H](C(=O)O)C(C)C [Ac-WV] (Ac-Trp-Val-OH; C-terminus assumed),fold less potent than Ac-GWETWV,[1]; [8],78.7 fold
same,IC50,[1]; [9],77.8 µM
GCGCSWV (peptide),IC50,[3],2 µM
CC(C)[C@H](NC(=O)[C@H](Cc1c[nH]c2ccccc12)NC(=O)[C@@H](N)[C@@H](C)O)C(=O)O [H1N -TWV] (H-Thr-Trp-Val-OH; C-terminus assumed),fold less potent than H1N -GWETWV,[1]; [10],73.6 fold
same,IC50,[1]; [11],105 µM
H-GWETWV [H1N-GWETWV],IC50,[1],1.4 µM
same,fold less potent than H1N -GWETWV,[1]; [10],1.0 fold
CC(C)C(NC(=O)C(Cc1cc2ccccc2[nH]1)NC(=O)c1cnc2ccccc2n1)C(=O)O (stereo not shown) [WV 46],IC50,[1]; [12],334 µM
Ac-WETAV [Ac-WETAV],IC50,[1],34 µM
same,fold less potent than Ac-WETWV (SEQ ID NO:225),[1],69.3 fold
same,fold less potent than Ac-WETWV,[1]; [7],69.3 fold
H-WETWV [H1N -WETWV],IC50,[1],0.2 µM
same,fold less potent than H1N -GWETWV,[1]; [10],0.2 fold
"Ac-WGWTTWL [12 | 01-30, EQ ID NO 651 N^AC-WGWTTWL]",IC50,[5],35500 nM
same,IC50,[4],47 ± 4 nM
Ac-WATWV [Ac-WATWV],IC50,[1],14.8 µM
same,fold less potent than Ac-WETWV (SEQ ID NO:225),[1],30.3 fold
Ac-WETWV [Ac-WETWV],IC50,[1],0.5 µM
same,fold less potent than Ac-WETWV (SEQ ID NO:225),[1],1 fold
same,fold less potent than Ac-GWETWV,[1]; [8],0.5 fold
same,fold less potent than Ac-WETWV,[1]; [13],1 fold
same,fold less potent than Ac-WETWV,[1]; [7],1 fold
CC(C)[C@H](NC(=O)[C@H](Cc1c[nH]c2ccccc12)NC(=O)[C@@H](NC(=O)[C@@H](N)CCC(=O)O)[C@@H](C)O)C(=O)O [H1N -ETWV] (H-ETWV-OH; C-terminus assumed),fold less potent than H1N -GWETWV,[1]; [10],11.5 fold
same,IC50,[1]; [11],16.5 µM
"Ac-YRLNDYV [18 | 01-98, SEQ ID NO 657 N^AC-YRLNDYV]",IC50,[4],28600 nM
"Ac-KETWL [20 | 01-05, SEQ ID NO 659 N^AC-KETWL]",IC50,[5],19800 nM
same,IC50,[4],12600 nM
Ac-WDTWV [Ac-WDTWV],IC50,[1],1.7 µM
same,fold less potent than Ac-WETWV,[1]; [13],3.4 fold
Ac-WESWV [Ac-WESWV],IC50,[1],2.5 µM
same,fold less potent than Ac-WETWV,[1]; [13],5.2 fold
CC(C)C(NC(=O)C(Cc1cc2ccccc2[nH]1)NC(=O)c1ccc(-c2ccc([N+](=O)[O-])cc2)o1)C(=O)O (stereo not shown) [WV 58],IC50,[1]; [12],697 µM
HTQITWV (peptide),IC50,[3],0.3 µM
"Ac-YSLTGYV [15 | 01-94, SEQ ID NO 654 N^AC-YSLTGYV]",IC50,[4],12400 nM
"Ac-WRHTTWL [11 | 01-29, EQ ID NO 650 N^AC-WRHTTWL]",IC50,[5],52400 nM
same,IC50,[4],35 ± 5 nM
H1N -TWV (peptide),IC50,[2],105 µM
same,fold less potent than H1N -GWETWV,[2],73.6 fold
"Ac-KTSTSYV [14 | 01-97, SEQ ID NO 653 N^AC-KTSTSYV]",IC50,[4],2030 nM
"Ac-KSTWL [23 | 01-03, SEQ ID NO 662 N^AC-KSTWL]",IC50,[4],5310 nM
Ac-GWETWV [Ac-GWETWV],IC50,[1],0.9 µM
same,fold less potent than Ac-GWETWV,[1]; [8],1.0 fold
CC(C)C(NC(=O)C(Cc1cc2ccccc2[nH]1)NC(=O)C1CCc2ccccc2C1)C(=O)O (stereo not shown) [WV 38],IC50,[1]; [12],304 µM
Ac-WETNapV (peptide),IC50,[2],0.6 µM
same,fold less potent than Ac-WETWV,[2],1.1 fold
"Ac-ERIWFV [29 | 01-24, SEQ ID NO 668 NAC-ERIWFV]",IC50,[4],21400 nM
CC(C)C(NC(=O)C(Cc1cc2ccccc2[nH]1)NC(=O)c1cc2ccccc2[nH]1)C(=O)O (stereo not shown) [WV 66],IC50,[1]; [12],549 µM
Ac-WETYV [Ac-WETYV],IC50,[1],42.5 µM
same,fold less potent than Ac-WETWV,[1]; [7],86.7 fold
Ac-WV (peptide),IC50,[2],77.8 µM
same,fold less potent than Ac-GWETWV,[2],78.7 fold
"Ac-YSRSQYV [16 | 01-95, SEQ ID NO 655 N^AC-YSRSQYV]",IC50,[4],4620 nM
CC(=O)N[C@@H](Cc1c[nH]c2ccccc12)C(=O)N[C@@H](CCC(=O)O)C(=O)N[C@H](C(=O)N[C@@H](Cc1ccc2ccccc2c1)C(=O)N[C@H](C(=O)O)C(C)C)[C@@H](C)O [Ac-WETNapV] (Ac-WET[2Nal]V-OH; C-terminus assumed),IC50,[1],0.6 µM
same,fold less potent than Ac-WETWV,[1]; [7],1.1 fold
"Ac-FETWL [3 | 01-08, SEQ ID NO 642 N^AC-FETWL]",IC50,[5],3160 nM
"Ac-RETWL [22 | 01-02, SEQ ID NO 661 N^AC-RETWL]",IC50,[5],39700 nM
same,IC50,[4],28600 nM
CC(=O)N[C@@H](CCC(=O)O)C(=O)N[C@H](C(=O)N[C@@H](Cc1c[nH]c2ccccc12)C(=O)N[C@H](C(=O)O)C(C)C)[C@@H](C)O [Ac-ETWV] (Ac-ETWV-OH; C-terminus assumed),fold less potent than Ac-GWETWV,[1]; [8],5.1 fold
same,IC50,[1]; [9],4.9 µM
"Ac-KITWL [25 | 01-06, SEQ ID NO 664 N^AC-KITWL]",IC50,[4],2320 nM
Ac-WEVWV [Ac-WEVWV],IC50,[1],4.8 µM
same,fold less potent than Ac-WETWV,[1]; [13],9.8 fold
Ac-AETWV [Ac-AETWV],IC50,[1],4 µM
same,fold less potent than Ac-WETWV (SEQ ID NO:225),[1],8.2 fold
Ac-AETWV [Ac-AETWV],IC50,[6],4 µM
same,fold less potent than Ac-WETWV,[6],8.2 fold
Ac-WEAWV [Ac-WEAWV],IC50,[6],12.4 µM
same,fold less potent than Ac-WETWV,[6],25.3 fold
Ac-WETWV [Ac-WETWV],IC50,[2],0.5 µM
same,fold less potent than Ac-GWETWV,[2],0.5 fold
same,fold less potent than Ac-WETWV,[2],1 fold
Ac-WATWV [Ac-WATWV],IC50,[6],14.8 µM
same,fold less potent than Ac-WETWV,[6],30.3 fold
Ac-ETWV [Ac-ETWV],IC50,[2],4.9 µM
same,fold less potent than Ac-GWETWV,[2],5.1 fold
H-WETWV-OH [H1N -WETWV],IC50,[2],0.2 µM
same,fold less potent than H1N -GWETWV,[2],0.2 fold
H-GWETWV-OH [H1N-GWETWV],IC50,[2],1.4 µM
same,fold less potent than H1N -GWETWV,[2],1 fold
Ac-GWETWV [Ac-GWETWV],IC50,[2],0.9 µM
same,fold less potent than Ac-GWETWV,[2],1 fold
H-ETWV-OH [H1N -ETWV],IC50,[2],16.5 µM
same,fold less potent than H1N -GWETWV,[2],11.5 fold

# — patent publication US20030148264A1, “Phage displayed PDZ domain ligands” (GENENTECH, INC., priority 2001, published 2003)
